Assay results reported in patent US20250118779A1, “BIPOLAR PARAMETHOXYPHENYL CONTAINING REDOX MOLECULES” (ExxonMobil Technology and Engineering Company, priority 2023, published 2025).
Converted amounts (≈) assume the structure as drawn.

Experiments:
[1] = Room temperature solubility in acetonitrile; assay type: physicochemical; details: moles per liter of solution; for solubility: organic solvent or mixture, read-out: MeCN solubility
[2] = Cyclic voltammetry screening (3-electrode beaker cell); assay type: physicochemical; details: 0.1 M TBAPF6 in acetonitrile; for E1/2^0 (half-cell potential, arithmetic average of anode and cathode peaks): 5 mM redox species, Ag|10 mM AgNO3 reference; for E1/2^0 (half-cell potential, arithmetic average of anode and cathode peaks) / redox potential, E1/2: 100 mV/s; for redox potential, E1/2 / Redox activity of the bipolar molecule (in words): 5 mM; for redox potential, E1/2: vs Ag|10 mM AgNO3 in acetonitrile (−0.09 V vs Fc|Fc+); for Ecell^0 (cell voltage) / E^1/2, anolyte (negative) redox event / E^1/2, catholyte (positive) redox event: bipolar compound 5 mM; for E^1/2, anolyte (negative) redox event / E^1/2, catholyte (positive) redox event: vs Ag|10 mM AgNO3; for Redox activity of the bipolar molecule (in words): cyclic voltammogram

SMILES	Ecell^0 (cell voltage) [2] [V]	E^1/2, anolyte (negative) redox event [2] [V]	E^1/2, catholyte (positive) redox event [2]	E1/2^0 (half-cell potential, arithmetic average of anode and cathode peaks) [2]	redox potential, E1/2 [2]	also measured
Cc1cccc2ccccc12 [1-methylnaphthalene, reference compound]	–	–	–	−2.909 V vs Ag|Ag^+	−2.909 V	MeCN solubility ([1]; acetonitrile solvent): miscible
COc1ccc(OCCc2cccc3ccccc23)cc1 [Entry 1]	3.82	−2.857	+0.958 V	–	–	–
COc1ccc(OCc2cccc3ccccc23)cc1 [Entry 2]	–	–	+0.981 V	–	–	Redox activity of the bipolar molecule (in words) [2]: non-redox active molecule
COc1ccc(OCCc2cccc(-c3ccccc3)c2)cc1 [Entry 3]	3.93	−2.976	+0.953 V	–	–	–
COc1ccc(OCCc2ccccc2-c2ccccc2)cc1 [Entry 4]	3.82	−1.217	+0.934 V	–	–	–
COc1ccc(OCc2ccccc2-c2ccccc2)cc1 [Entry 5]	–	–	+0.985 V	–	–	Redox activity of the bipolar molecule (in words) [2]: non-redox active molecule
c1ccc(-c2ccccc2)cc1 [biphenyl, reference compound]	–	–	–	−2.987 V vs Ag|Ag^+	−2.987 V	solubility [1]: 1730 mM (≈ 267 mg/mL)
COc1ccc(OC)cc1 [p-dimethoxybenzene, reference compound]	–	–	–	+0.967 V vs Ag|Ag^+	+0.967 V	solubility [1]: 600 mM (≈ 82.9 mg/mL)
C(=C\c1ccccc1)/c1ccccc1 [trans-stilbene, reference compound]	–	–	–	−2.571 V vs Ag|Ag^+	−2.571 V	solubility [1]: 1070 mM (≈ 193 mg/mL)

Continued, in another order:

Ecell^0 (cell voltage) [2] [V]	E^1/2, anolyte (negative) redox event [2] [V]	E^1/2, catholyte (positive) redox event [2]	SMILES	E1/2^0 (half-cell potential, arithmetic average of anode and cathode peaks) [2]	redox potential, E1/2 [2]	also measured
3.73	−2.632	+1.096 V	COc1ccc(OCCc2ccc(/C=C/c3ccccc3)cc2)cc1 [Entry 6]	–	–	–
–	−2.665	–	COc1ccc(CCOc2ccc(/C=C/c3ccccc3)cc2)cc1 [Entry 7]	–	–	Redox activity of the bipolar molecule (in words) [2]: non-redox active molecule
